US8124793B2, “Derivatives of ethylene methanedisulfonate as cancer chemotherapeutic agents” (priority 2007, dated 2012)

Assays:
[1] = test system: HCT-15; assay: NCI screen, growth of human tumor cells: Colon Cancer HCT-15; type: cell-based; details: HCT-15 (Colon Cancer), 10^−4 molar
Summary of the method: (§1)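 Growth of human tumor cells, expressed as percent, was determined in the NCI screen. Test data list the cancer type and the molar concentration applied.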

[2] = test system: HL-60 (TB); assay: NCI screen, growth of human tumor cells: Leukemia HL-60 (TB); type: cell-based; details: HL-60 (TB) (Leukemia), 10^−4 molar
Procedure: (§2) In the NCI screening process, each compound was tested and described by a minimum of 60 data points. The test data include, but are not limited to the type of cancer, the molar concentration used in the screen, and the percent growth of the cancer. In some cases, NMR and elemental analysis were used for structural assignment.

[3] = test system: HCT-116; assay: NCI screen, growth of human tumor cells: Colon Cancer HCT-116; type: cell-based; details: HCT-116 (Colon Cancer), 10^−4 molar
Summary of the method: as §1

[4] = test system: SF-295; assay: NCI screen, growth of human tumor cells: CNS Cancer SF-295; type: cell-based; details: SF-295 (CNS Cancer), 10^−4 molar
Summary of the method: as §1

[5] = test system: RPMI-8226; assay: NCI screen, growth of human tumor cells: Leukemia RPMI-8226; type: cell-based; details: RPMI-8226 (Leukemia), 10^−4 molar
Summary of the method: as §1

[6] = test system: CAKI-1; assay: NCI screen, growth of human tumor cells: Renal Cancer CAKI-1; type: cell-based; details: CAKI-1 (Renal Cancer), 10^−4 molar
Summary of the method: as §1

[7] = test system: CCRF-CEM; assay: NCI screen, growth of human tumor cells: Leukemia CCRF-CEM; type: cell-based; details: CCRF-CEM (Leukemia), 10^−4 molar
Summary of the method: as §1

[8] = test system: DU-145; assay: NCI screen, growth of human tumor cells: Prostate Cancer DU-145; type: cell-based; details: DU-145 (Prostate Cancer), 10^−4 molar
Summary of the method: as §1

[9] = test system: SK-OV-3; assay: NCI screen, growth of human tumor cells: Ovarian Cancer SK-OV-3; type: cell-based; details: SK-OV-3 (Ovarian Cancer), 10^−4 molar
Summary of the method: as §1

[10] = test system: SF-268; assay: NCI screen, growth of human tumor cells: CNS Cancer SF-268; type: cell-based; details: SF-268 (CNS Cancer), 10^−4 molar
Summary of the method: as §1

[11] = test system: AS49/ATCC; assay: NCI screen, growth of human tumor cells: Non-Small Cell Lung AS49/ATCC; type: cell-based; details: AS49/ATCC (Non-Small Cell Lung), 10^−4 molar
Summary of the method: as §1

[12] = test system: SF-539; assay: NCI screen, growth of human tumor cells: CNS Cancer SF-539; type: cell-based; details: SF-539 (CNS Cancer), 10^−4 molar
Summary of the method: as §1

[13] = test system: KM12; assay: NCI screen, growth of human tumor cells: Colon Cancer KM12; type: cell-based; details: KM12 (Colon Cancer), 10^−4 molar
Summary of the method: as §1

[14] = test system: MCF 7; assay: NCI screen, growth of human tumor cells: Breast Cancer MCF 7; type: cell-based; details: MCF 7 (Breast Cancer), 10^−4 molar
Summary of the method: as §1

[15] = test system: M14; assay: NCI screen, growth of human tumor cells: Melanoma M14; type: cell-based; details: M14 (Melanoma), 10^−4 molar
Summary of the method: as §1

[16] = test system: HS 578T; assay: NCI screen, growth of human tumor cells: Breast Cancer HS 578T; type: cell-based; details: HS 578T (Breast Cancer), 10^−4 molar
Summary of the method: as §1

[17] = test system: UACC-257; assay: NCI screen, growth of human tumor cells: Melanoma UACC-257; type: cell-based; details: UACC-257 (Melanoma), 10^−4 molar
Summary of the method: as §1

[18] = test system: OVCAR-3; assay: NCI screen, growth of human tumor cells: Ovarian Cancer OVCAR-3; type: cell-based; details: OVCAR-3 (Ovarian Cancer), 10^−4 molar
Summary of the method: as §1

[19] = test system: OVCAR-4; assay: NCI screen, growth of human tumor cells: Ovarian Cancer OVCAR-4; type: cell-based; details: OVCAR-4 (Ovarian Cancer), 10^−4 molar
Summary of the method: as §1

[20] = test system: IGROVI; assay: NCI screen, growth of human tumor cells: Ovarian Cancer IGROVI; type: cell-based; details: IGROVI (Ovarian Cancer), 10^−4 molar
Summary of the method: as §1

[21] = test system: ACHN; assay: NCI screen, growth of human tumor cells: Renal Cancer ACHN; type: cell-based; details: ACHN (Renal Cancer), 10^−4 molar
Summary of the method: as §1

[22] = test system: OVCAR-8; assay: NCI screen, growth of human tumor cells: Ovarian Cancer OVCAR-8; type: cell-based; details: OVCAR-8 (Ovarian Cancer), 10^−4 molar
Summary of the method: as §1

[23] = test system: K562; assay: NCI screen, growth of human tumor cells: Leukemia K562; type: cell-based; details: K562 (Leukemia), 10^−4 molar
Summary of the method: as §1

[24] = test system: SNB-75; assay: NCI screen, growth of human tumor cells: CNS Cancer SNB-75; type: cell-based
Summary of the method: as §1

[25] = test system: HOP-62; assay: NCI screen, growth of human tumor cells: Non-Small Cell Lung HOP-62; type: cell-based; details: HOP-62 (Non-Small Cell Lung), 10^−4 molar
Summary of the method: as §1

[26] = test system: NCI-H460; assay: NCI screen, growth of human tumor cells: Non-Small Cell Lung NCI-H460; type: cell-based
Summary of the method: as §1

[27] = test system: UACC-62; assay: NCI screen, growth of human tumor cells: Melanoma UACC-62; type: cell-based; details: UACC-62 (Melanoma), 10^−4 molar
Summary of the method: as §1

[28] = test system: SN12C; assay: NCI screen, growth of human tumor cells: Renal Cancer SN12C; type: cell-based; details: SN12C (Renal Cancer), 10^−4 molar
Summary of the method: as §1

[29] = test system: NCI-H522; assay: NCI screen, growth of human tumor cells: Non-Small Cell Lung NCI-H522; type: cell-based; details: NCI-H522 (Non-Small Cell Lung), 10^−4 molar
Summary of the method: as §1

[30] = test system: SK-MEL-5; assay: NCI screen, growth of human tumor cells: Melanoma SK-MEL-5; type: cell-based; details: SK-MEL-5 (Melanoma), 10^−4 molar
Summary of the method: as §1

[31] = test system: 786-0; assay: NCI screen, growth of human tumor cells: Renal Cancer 786-0; type: cell-based; details: 786-0 (Renal Cancer), 10^−4 molar
Summary of the method: as §1

[32] = test system: UO-31; assay: NCI screen, growth of human tumor cells: Renal Cancer UO-31; type: cell-based; details: UO-31 (Renal Cancer), 10^−4 molar
Summary of the method: as §1

[33] = test system: MDA-N; assay: NCI screen, growth of human tumor cells: Breast Cancer MDA-N; type: cell-based; details: 10^−4 molar
Procedure: as §2

[34] = test system: MOLT-4; assay: NCI screen, growth of human tumor cells: Leukemia MOLT-4; type: cell-based; details: MOLT-4 (Leukemia), 10^−4 molar
Summary of the method: as §1

[35] = test system: RXF-393; assay: NCI screen, growth of human tumor cells: Renal Cancer RXF-393; type: cell-based; details: RXF-393 (Renal Cancer), 10^−4 molar
Summary of the method: as §1

[36] = test system: human cancer cells; assay: NCI screen summary over the cancers tested (negative growth of human cancer cells); type: cell-based; details: 10^−4 M conc.; cancers with negative growth / cancers tested
Procedure: as §2
The derivatives in the tables are grouped using the same category as in the tables 1-6.

[37] = test system: LOXIMVI; assay: NCI screen, growth of human tumor cells: Melanoma LOXIMVI; type: cell-based; details: LOXIMVI (Melanoma), 10^−4 molar
Summary of the method: as §1

[38] = test system: HT29; assay: NCI screen, growth of human tumor cells: Colon Cancer HT29; type: cell-based; details: HT29 (Colon Cancer), 10^−4 molar
Summary of the method: as §1

[39] = test system: MCF7/ADR-RES; assay: NCI screen, growth of human tumor cells: Breast Cancer MCF7/ADR-RES; type: cell-based; details: MCF7/ADR-RES (Breast Cancer), 10^−4 molar
Summary of the method: as §1

SMILES: O=S1(=O)OCCOS(=O)(=O)C1C1c2ccccc2-c2ccccc21 [NSC 686562, ethylene 9-fluorenylmethanedisulfonate]
- melting point: 118 to 124 °C
- percent of growth of human tumor cells [1]: 15%
- percent of growth of human tumor cells [2]: −20%
- percent of growth of human tumor cells [3]: 0%
- percent of growth of human tumor cells [4]: 22%
- percent of growth of human tumor cells [5]: 9%
- percent of growth of human tumor cells [6]: −1%
- percent of growth of human tumor cells [7]: −3%
- percent of growth of human tumor cells [8]: 9%
- percent of growth of human tumor cells [9]: 25%
- percent of growth of human tumor cells [10]: 29%
- percent of growth of human tumor cells [11]: 30%
- percent of growth of human tumor cells [12]: 10%
- percent of growth of human tumor cells [13]: 22%
- percent of growth of human tumor cells [14]: 23%
- percent of growth of human tumor cells [15]: 23%
- percent of growth of human tumor cells [16]: 24%
- percent of growth of human tumor cells [17]: 28%
- percent of growth of human tumor cells [18]: 25%
- percent of growth of human tumor cells [19]: −39%
- percent of growth of human tumor cells [20]: 16%
- percent of growth of human tumor cells [21]: 9%
- percent of growth of human tumor cells [22]: 29%
- percent of growth of human tumor cells [23]: 16%
- % Growth ([24]; SNB-75, 10^−4 molar): −28%
- % Growth ([24]; SNB-75, 10^−5 molar): 28%
- % Growth ([24]; SNB-75, 10^−6 molar): 64%
- percent of growth of human tumor cells [25]: 5%
- % Growth ([26]; NCI-H460, 10^−4 molar): −50%
- % Growth ([26]; NCI-H460, 10^−5 molar): 56%
- percent of growth of human tumor cells [27]: 10%
- percent of growth of human tumor cells [28]: 28%
- percent of growth of human tumor cells [29]: −19%
- percent of growth of human tumor cells [30]: 4%
- percent of growth of human tumor cells [31]: 2%
- percent of growth of human tumor cells [32]: −3%
- percent of growth of human tumor cells [33]: 17%
- percent of growth of human tumor cells [34]: −32%
- percent of growth of human tumor cells [35]: 25%
- Percentage of cancers showing negative growth cancers tested [36]: 10^−4 M conc. = 11/38 = 29%
- percent of growth of human tumor cells [37]: −27%
- percent of growth of human tumor cells [38]: 26%
- percent of growth of human tumor cells [39]: −7%
